Laboratory results: patent US9067884B2, “Pyrrole compounds that modulate HSP90 activity” (Synta Pharmaceuticals Corp., priority 2008, dated 2015)

Assays:
[1] = tested on: Hsp90; experiment: IC50 range of compounds of the invention for  inhibition of Hsp90 (Method 2: MV-4-11 cells, Cell Counting Kit-8); format: cell-based, human; details: text: IC50 range for Her2 degradation, 72 hours, cell survival by Cell Counting Kit-8
Protocol: MV-4-11 cells (20,000 cells/well) were cultured in 96-well plates and maintained at 37° C. for several hours. The cells were treated with a compound of the invention or 17AAG (a positive control) at various concentrations and incubated at 37° C. for 72 hours. Cell survival was measured with Cell Counting Kit-8 (Dojindo Laboratories, Cat. # CK04).

[2] = tested on: Her2; experiment: Degradation of Her2 in BT-474 cells (Method 1, Western blot); format: cell-based, Human; details: 0.5 μM, overnight
Protocol: Human high-Her2 breast carcinoma BT474 (HTB-20), SK-BR-3 (HTB-30) and MCF-7 breast carcinoma (HTB-22) from American Type Culture Collection, VA, USA were grown in Dulbecco's modified Eagle's medium with 4 mM L-glutamine and antibiotics (100 IU/ml penicillin and 100 μg/ml streptomycine; GibcoBRL). To obtain exponential cell growth, cells were trypsinized, counted and seeded at a cell density of 0.5×10^6 cells/ml regularly, every 3 days. All experiments were performed on day 1 after cell passage.
BT-474 cells are treated with 0.5 μM, 2 μM, or 5 μM of 17AAG (a positive control) or 0.5 μM, 2 μM, or 5 μM of a compound of the invention overnight in DMEM medium. After treatment, each cytoplasmic sample, is prepared from 1×10^6 cells by incubation of cell lysis buffer (#9803, Cell Signaling Technology) on ice for 10 minutes. The resulting supernatant used as the cytosol fractions is dissolved with sample buffer for SDS-PAGE and run on a SDS-PAGE gel, blotted onto a nitrocellulose membrane by using semi-dry transfer. Non-specific binding to nitrocellulose is blocked with 5% skim milk in TBS with 0.5% Tween at room temperature for 1 hour, then probed with anti-Her2/ErB2 mAb (rabbit IgG, #2242, Cell Signaling) and anti-Tubulin (T9026, Sigma) as housekeeping control protein. […]

Row | SMILES | IC50 [1] | degradation of Her2 [2]
1 | CCNC(=O)c1ccc(-c2cc(C(C)C)c(O)cc2O)n1-c1ccc(N(C)C)cc1 [Compound 3, 5-(2,4-dihydroxy-5-isopropylphenyl)-1-(4-(dimethylamino)phenyl)-N-ethyl-1H-pyrrole-2-carboxamide] | > 1000 nM | –
2 | C=CCNC1=C2C[C@@H](C)C[C@H](OC)[C@H](O)[C@@H](C)/C=C(\C)[C@H](OC(N)=O)[C@@H](OC)/C=C\C=C(/C)C(=O)NC(=CC1=O)C2=O [Compound 17AAG, 17-allylamino-17-demethoxygeldanamycin] | – | partial degradation of Her2
